Source: the NIST ThermoML archive (doi:10.1016/j.jct.2011.02.018)
Numbers after ± are expanded uncertainties.

Assay: xn = mol fraction of the nth substance listed
Conditions: 101 kPa, Liquid, Vibrating tube method

COC(C)(C)C [2-methoxy-2-methylpropane] + CO
mass density [kg/m3]
Conditions | 293.15 K | 298.15 K | 303.15 K | 308.15 K
x1 = 0.01 | 790.62 ± 0.23 | 785.93 ± 0.23 | 781.19 ± 0.23 | 776.42 ± 0.23
x1 = 0.0201 | 789.69 ± 0.23 | 785 ± 0.23 | 780.24 ± 0.23 | 775.46 ± 0.23
x1 = 0.0301 | 788.74 ± 0.23 | 784.01 ± 0.23 | 779.26 ± 0.23 | 774.46 ± 0.23
x1 = 0.0402 | 787.83 ± 0.23 | 783.09 ± 0.23 | 778.32 ± 0.23 | 773.51 ± 0.23
x1 = 0.0502 | 786.96 ± 0.23 | 782.24 ± 0.23 | 777.44 ± 0.23 | 772.61 ± 0.23
x1 = 0.0601 | 786.1 ± 0.23 | 781.36 ± 0.23 | 776.57 ± 0.23 | 771.73 ± 0.23
x1 = 0.0696 | 785.32 ± 0.23 | 780.58 ± 0.23 | 775.75 ± 0.23 | 770.9 ± 0.23
x1 = 0.0799 | 784.47 ± 0.23 | 779.71 ± 0.23 | 774.88 ± 0.23 | 770.02 ± 0.23
x1 = 0.0888 | 783.72 ± 0.23 | 778.95 ± 0.23 | 774.12 ± 0.23 | 769.25 ± 0.23
x1 = 0.1008 | 782.79 ± 0.23 | 778 ± 0.23 | 773.16 ± 0.23 | 768.27 ± 0.23
x1 = 0.1498 | 779.11 ± 0.23 | 774.25 ± 0.23 | 769.36 ± 0.23 | 764.43 ± 0.23
x1 = 0.1945 | 776.01 ± 0.23 | 771.13 ± 0.23 | 766.21 ± 0.23 | 761.24 ± 0.23
x1 = 0.26 | 771.99 ± 0.23 | 767.08 ± 0.23 | 762.1 ± 0.23 | 757.08 ± 0.24
x1 = 0.3006 | 769.58 ± 0.23 | 764.65 ± 0.23 | 759.64 ± 0.23 | 754.59 ± 0.24
x1 = 0.3482 | 766.92 ± 0.23 | 761.97 ± 0.23 | 756.93 ± 0.24 | 751.87 ± 0.24
x1 = 0.3841 | 765.07 ± 0.23 | 760.07 ± 0.23 | 755.01 ± 0.24 | 749.92 ± 0.24
x1 = 0.4527 | 761.67 ± 0.23 | 756.67 ± 0.24 | 751.59 ± 0.24 | 746.45 ± 0.24
x1 = 0.5004 | 759.46 ± 0.24 | 754.42 ± 0.24 | 749.29 ± 0.24 | 744.12 ± 0.24
x1 = 0.5458 | 757.52 ± 0.24 | 752.46 ± 0.24 | 747.32 ± 0.24 | 742.12 ± 0.24
x1 = 0.6009 | 755.29 ± 0.24 | 750.18 ± 0.24 | 745.03 ± 0.24 | 739.81 ± 0.24
x1 = 0.6459 | 753.48 ± 0.24 | 748.37 ± 0.24 | 743.18 ± 0.24 | 737.93 ± 0.24
x1 = 0.7014 | 751.36 ± 0.24 | 746.23 ± 0.24 | 741.01 ± 0.24 | 735.74 ± 0.24
x1 = 0.7449 | 749.75 ± 0.24 | 744.6 ± 0.24 | 739.36 ± 0.24 | 734.07 ± 0.24
x1 = 0.7986 | 747.76 ± 0.24 | 742.58 ± 0.24 | 737.33 ± 0.24 | 732.01 ± 0.24
x1 = 0.8504 | 745.92 ± 0.24 | 740.74 ± 0.24 | 735.47 ± 0.24 | 730.13 ± 0.24
x1 = 0.8978 | 744.27 ± 0.24 | 739.05 ± 0.24 | 733.78 ± 0.24 | 728.43 ± 0.24
x1 = 0.9091 | 743.88 ± 0.24 | 738.66 ± 0.24 | 733.39 ± 0.24 | 728.04 ± 0.24
x1 = 0.9184 | 743.53 ± 0.24 | 738.33 ± 0.24 | 733.04 ± 0.24 | 727.69 ± 0.24
x1 = 0.9259 | 743.26 ± 0.24 | 738.07 ± 0.24 | 732.78 ± 0.24 | 727.43 ± 0.24
x1 = 0.9379 | 742.81 ± 0.24 | 737.6 ± 0.24 | 732.32 ± 0.24 | 726.97 ± 0.24
x1 = 0.9473 | 742.48 ± 0.24 | 737.28 ± 0.24 | 732 ± 0.24 | 726.65 ± 0.24
x1 = 0.9598 | 742.06 ± 0.24 | 736.83 ± 0.24 | 731.56 ± 0.24 | 726.21 ± 0.24
x1 = 0.9706 | 741.68 ± 0.24 | 736.46 ± 0.24 | 731.17 ± 0.24 | 725.82 ± 0.24
x1 = 0.9791 | 741.36 ± 0.24 | 736.13 ± 0.24 | 730.85 ± 0.24 | 725.49 ± 0.24
x1 = 0.9881 | 741.04 ± 0.24 | 735.82 ± 0.24 | 730.53 ± 0.24 | 725.18 ± 0.24
